# Data from US20230286973A1, “PROTEIN SECRETION INHIBITORS” (KEZAR LIFE SCIENCES, priority 2020, published 2023).
# Read-outs that look alike come from different tables or passages of the source.
# What was measured:
# [1] = Liver Microsome Stability Assay (rat); settings: rat liver microsomes, with NADPH, 1.0 uM compound
# Method: (§1) Stability of a compound was assessed in the presence of liver microsomes from various sources—mouse, rat, monkey and human liver microsomes. 1.0 uM compound, 0.4% DMSO in 0.1 M Potassium Phosphate with 1.0 mg/mL liver microsomes, were incubated at 37° C. with or without 1 mM NADPH. The samples were quenched at 0, and 30 minutes.
# [2] = Liver Microsome Stability Assay (mouse); settings: mouse liver microsomes, with NADPH, 1.0 uM compound
# Method: as §1
# [3] = tested on: TNFα-FL/Gaussia Luciferase; experiment: Dox Induced TNFα-FL-Gluc Assay; format: cell-based; settings: for IC50: 24 hr Dox induction, 293FRT/TO cells, read-out: 24 hr Dox Inducible TNFaFLGluc 293FRT/TO: Mean IC50; for 24 hr Dox Inducible TNFaFLGluc 293FRT/TO: TNF/PD1: ratio of TNFaFLGluc IC50 to PD1ssGluc IC50
# How it was run: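 Flp-In 293 T-REx cells stably carrying doxycycline-inducible full-length TNFα (aa 1-233) fused to Gaussia luciferase. Plated the day before, then treated with compound dilutions in doxycycline-containing medium at 37° C, 5% CO2.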
# [4] = Liver Microsome Stability Assay (monkey); settings: monkey liver microsomes, with NADPH, 1.0 uM compound
# Method: as §1
# [5] = tested on: HER3-ss+4aa/Gaussia Luciferase; experiment: Dox-Induced Her3-ss-Gluc Assay; format: cell-based; settings: 24 hr Dox induction, 293FRT/TO cells, read-out: 24 hr Dox Inducible Her3(ss + 4)Gluc 293FRT/TO: Mean IC50
# How it was run: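 Stable Flp-In 293 T-REx cells carried a doxycycline-inducible HER3 signal sequence (+4 aa) fused to Gaussia luciferase. Cells were plated the day before the assay. Compound dilutions in DMSO/media containing doxycycline were then added, and plates were incubated at 37 °C, 5% CO2.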
# [6] = tested on: PD1-ss+10aa/Gaussia Luciferase; experiment: Dox-Induced PD1-ss-Gluc Assay; format: cell-based; settings: 24 hr Dox induction, 293FRT/TO cells, read-out: 24 hr Dox Inducible PD1ssGluc 293FRT/TO: Mean IC50
# How it was run: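 Doxycycline-induced expression of a PD1-ss+10aa/Gaussia luciferase reporter is measured in stable Flp-In 293 T-REx cells. Compound dilutions containing doxycycline are added one day after plating and incubated at 37 °C, 5% CO2. Values for unassigned stereocentres refer to stereoisomer mixtures.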
# [7] = tested on: IL-2-FL/Gaussia Luciferase; experiment: Dox Induced IL2-FL-Gluc Assay; format: cell-based; settings: for IC50: 24 hr Dox induction, 293FRT/TO cells, read-out: 24 hr Dox Inducible IL2FLGluc 293FRT/TO: Mean IC50; for 24 hr Dox Inducible IL2FLGluc 293FRT/TO: IL2/PD1: ratio of IL2FLGluc IC50 to PD1ssGluc IC50
# How it was run: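 Stable Flp-In 293 T-REx cells carrying doxycycline-inducible full-length IL-2 (aa 1-153) fused to Gaussia luciferase, plated the day before assay. Compound dilutions added in medium containing doxycycline, incubated at 37 °C, 5% CO2. Undefined stereocentres mean data refer to stereoisomer mixtures.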
# [8] = Liver Microsome Stability Assay (human); settings: human liver microsomes, with NADPH, 1.0 uM compound
# Method: as §1
# [9] = tested on: multiple myeloma cell line U266B1; experiment: U266 Cell Viability Assay; format: cell-based, human; settings: Homo sapiens, U-266, 48 h, U266B1 cells, Celltiter-Glo
# How it was run: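 U266B1 multiple myeloma cells in RPMI 1640/10% FBS were treated with compound dilutions for 48 h at 37 °C, 5% CO2. Viability was measured by CellTiter-Glo luminescence; compounds drawn without stereochemistry were tested as stereoisomer mixtures.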
# [10] = tested on: multiple myeloma cell line NCI-H929; experiment: H929 Cell Viability Assay; format: cell-based, human; settings: Homo sapiens, NCI-H929, 48 h, NCI-H929 cells, Celltiter-Glo
# How it was run: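 NCI-H929 cells in RPMI 1640 with 10% FBS were treated with compound dilutions for 48 h at 37° C, 5% CO2. Viability was read by CellTiter-Glo luminescence. Undefined stereocentres denote stereoisomer mixtures.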
# [11] = '<=>' given where both are I.A.
smiles,measurement,setting,value
"CC(C)c1c(/C=C/c2csc(NC(=O)c3cccn3Cc3ccnc(F)c3)n2)ncn1C [Compound B81, (E)-1-((2-fluoropyridin-4-yl)methyl)-N-(4-(2-(5-isopropyl-1-methyl-1H-imidazol-4-yl)vinyl)thiazol-2-yl)-1H-pyrrole-2-carboxamide]",Liver Microsome Stability (Multiple Species): Rat - % Remaining after 30 min w/NADPH,[1],9.66%
same,Liver Microsome Stability (Multiple Species): Mouse - % Remaining after 30 min w/NADPH,[2],11.7%
same,IC50,[3],> 25 µM
same,24 hr Dox Inducible TNFaFLGluc 293FRT/TO: TNF/PD1,[3],>109
same,Liver Microsome Stability (Multiple Species): Monkey - % Remaining after 30 min w/NADPH,[4],0.06%
same,IC50,[5],15.6 µM
same,IC50,[6],0.228 µM
same,IC50,[7],> 25 µM
same,24 hr Dox Inducible IL2FLGluc 293FRT/TO: IL2/PD1,[7],>110
same,Liver Microsome Stability (Multiple Species): Human - % Remaining after 30 min w/NADPH,[8],0.58%
same,EC50,[9],> 25 µM
same,EC50,[10],16.9 µM
"CCn1cnc(/C=C/c2csc(NC(=O)c3cccn3Cc3ccnc(F)c3)n2)c1C [Compound B117, (E)-N-(4-(2-(1-ethyl-5-methyl-1H-imidazol-4-yl)vinyl)thiazol-2-yl)-1-((2-fluoropyridin-4-yl)methyl)-1H-pyrrole-2-carboxamide]",Liver Microsome Stability (Multiple Species): Rat - % Remaining after 30 min w/NADPH,[1],4.95%
same,Liver Microsome Stability (Multiple Species): Mouse - % Remaining after 30 min w/NADPH,[2],15.8%
same,IC50,[3]; mean,23.6 µM
same,24 hr Dox Inducible TNFaFLGluc 293FRT/TO: TNF/PD1,[3]; [11],743
same,Liver Microsome Stability (Multiple Species): Monkey - % Remaining after 30 min w/NADPH,[4],0.22%
same,IC50,[5]; mean,> 25 µM
same,IC50,[6]; mean,0.0318 µM
same,IC50,[7]; mean,> 25 µM
same,24 hr Dox Inducible IL2FLGluc 293FRT/TO: IL2/PD1,[7]; [11],>790
same,Liver Microsome Stability (Multiple Species): Human - % Remaining after 30 min w/NADPH,[8],0.29%
same,EC50,[9],21.2 µM
same,EC50,[10],16.9 µM
"CC(C(N)=O)n1cnc(/C=C/c2csc(NC(=O)c3cccn3Cc3ccnc(F)c3)n2)c1 (centres unmarked) [Compound B113, (E)-N-(4-(2-(1-(1-amino-1-oxopropan-2-yl)-1H-imidazol-4-yl)vinyl)thiazol-2-yl)-1-((2-fluoropyridin-4-yl)methyl)-1H-pyrrole-2-carboxamide]",Liver Microsome Stability (Multiple Species): Rat - % Remaining after 30 min w/NADPH,[1],69.7%
same,Liver Microsome Stability (Multiple Species): Mouse - % Remaining after 30 min w/NADPH,[2],68.2%
same,IC50,[3],> 25 µM
same,24 hr Dox Inducible TNFaFLGluc 293FRT/TO: TNF/PD1,[3],<=>1.00
same,Liver Microsome Stability (Multiple Species): Monkey - % Remaining after 30 min w/NADPH,[4],3.11%
same,IC50,[5],> 25 µM
same,IC50,[6],> 25 µM
same,IC50,[7],> 25 µM
same,24 hr Dox Inducible IL2FLGluc 293FRT/TO: IL2/PD1,[7],<=>1.0
same,Liver Microsome Stability (Multiple Species): Human - % Remaining after 30 min w/NADPH,[8],7.08%
same,EC50,[9],> 25 µM
same,EC50,[10],> 25 µM
NC(=O)CCn1cccc1C(=O)Nc1nc([C@H]2CCCN2c2ccccc2)cs1 [Compound C15],Liver Microsome Stability (Multiple Species): Rat - % Remaining after 30 min w/NADPH,[1],18.3%
same,Liver Microsome Stability (Multiple Species): Mouse - % Remaining after 30 min w/NADPH,[2],31.7%
same,IC50,[3]; mean,> 25 µM
same,Liver Microsome Stability (Multiple Species): Monkey - % Remaining after 30 min w/NADPH,[4],22.4%
same,IC50,[5]; mean,> 25 µM
same,IC50,[6]; mean,> 25 µM
same,IC50,[7]; mean,> 25 µM
same,24 hr Dox Inducible IL2FLGluc 293FRT/TO: IL2/PD1,[7]; [11],1
same,Liver Microsome Stability (Multiple Species): Human - % Remaining after 30 min w/NADPH,[8],29.3%
same,EC50,[9],> 25 µM
same,EC50,[10],> 25 µM
"CC1CCCc2c(/C=C/c3csc(NC(=O)c4cccn4Cc4ccnc(F)c4)n3)ncn21 (centres unmarked) [Compound B101, (E)-1-((2-fluoropyridin-4-yl)methyl)-N-(4-(2-(5-methyl-5,6,7,8-tetrahydroimidazo[1,5-a]pyridin-1-yl)vinyl)thiazol-2-yl)-1H-pyrrole-2-carboxamide]",Liver Microsome Stability (Multiple Species): Rat - % Remaining after 30 min w/NADPH,[1],2.51%
same,Liver Microsome Stability (Multiple Species): Mouse - % Remaining after 30 min w/NADPH,[2],6.67%
same,IC50,[3],19 µM
same,24 hr Dox Inducible TNFaFLGluc 293FRT/TO: TNF/PD1,[3],1640
same,Liver Microsome Stability (Multiple Species): Monkey - % Remaining after 30 min w/NADPH,[4],0.25%
same,IC50,[5],4.28 µM
same,IC50,[6],0.0116 µM
same,IC50,[7],6.53 µM
same,24 hr Dox Inducible IL2FLGluc 293FRT/TO: IL2/PD1,[7],560
same,Liver Microsome Stability (Multiple Species): Human - % Remaining after 30 min w/NADPH,[8],0.38%
same,EC50,[9],19.5 µM
same,EC50,[10],15.3 µM
"CCc1ccc(N2CCC[C@@H]2c2csc(NC(=O)c3cccn3Cc3ccncc3)n2)nc1 [Compound E65, (R)-N-(4-(1-(5-ethylpyridin-2-yl)pyrrolidin-2-yl)thiazol-2-yl)-1-(pyridin-4-ylmethyl)-1H-pyrrole-2-carboxamide]",Liver Microsome Stability (Multiple Species): Rat - % Remaining after 30 min w/NADPH,[1],2.87%
same,Liver Microsome Stability (Multiple Species): Mouse - % Remaining after 30 min w/NADPH,[2],0.33%
same,IC50,[3]; mean,0.071 µM
same,24 hr Dox Inducible TNFaFLGluc 293FRT/TO: TNF/PD1,[3]; [11],12.9
same,Liver Microsome Stability (Multiple Species): Monkey - % Remaining after 30 min w/NADPH,[4],0.13%
same,IC50,[5]; mean,0.0144 µM
same,IC50,[6]; mean,0.0055 µM
same,IC50,[7]; mean,0.0164 µM
same,24 hr Dox Inducible IL2FLGluc 293FRT/TO: IL2/PD1,[7]; [11],3
same,Liver Microsome Stability (Multiple Species): Human - % Remaining after 30 min w/NADPH,[8],0.33%
same,EC50,[9],> 25 µM
same,EC50,[10],0.142 µM
"O=C(Nc1nc(/C=C/c2ncn3c2CCCC3)cs1)c1cccn1Cc1ccnc(F)c1 [Compound B86, (E)-1-((2-fluoropyridin-4-yl)methyl)-N-(4-(2-(5,6,7,8-tetrahydroimidazo[1,5-a]pyridin-1-yl)vinyl)thiazol-2-yl)-1H-pyrrole-2-carboxamide]",Liver Microsome Stability (Multiple Species): Rat - % Remaining after 30 min w/NADPH,[1],17%
same,Liver Microsome Stability (Multiple Species): Mouse - % Remaining after 30 min w/NADPH,[2],12.5%
same,IC50,[3],> 25 µM
same,24 hr Dox Inducible TNFaFLGluc 293FRT/TO: TNF/PD1,[3],>239
same,Liver Microsome Stability (Multiple Species): Monkey - % Remaining after 30 min w/NADPH,[4],0.11%
same,IC50,[5],23.2 µM
same,IC50,[6],0.104 µM
same,IC50,[7],> 25 µM
same,24 hr Dox Inducible IL2FLGluc 293FRT/TO: IL2/PD1,[7],>240
same,Liver Microsome Stability (Multiple Species): Human - % Remaining after 30 min w/NADPH,[8],0.27%
same,EC50,[9],16.7 µM
same,EC50,[10],16.5 µM
"CCOC(=O)Nc1ccc(N2CCC[C@@H]2c2csc(NC(=O)c3cccn3Cc3ccnc(F)c3)n2)cc1 [Compound A145, ethyl (R)-(4-(2-(2-(1-((2-fluoropyridin-4-yl)methyl)-1H-pyrrole-2-carboxamido)thiazol-4-yl)pyrrolidin-1-yl)phenyl)carbamate]",Liver Microsome Stability (Multiple Species): Rat - % Remaining after 30 min w/NADPH,[1],46%
same,Liver Microsome Stability (Multiple Species): Mouse - % Remaining after 30 min w/NADPH,[2],25.1%
same,IC50,[3],0.00751 µM
same,24 hr Dox Inducible TNFaFLGluc 293FRT/TO: TNF/PD1,[3],24
same,Liver Microsome Stability (Multiple Species): Monkey - % Remaining after 30 min w/NADPH,[4],18%
same,IC50,[5],0.00083 µM
same,IC50,[6],0.00031 µM
same,IC50,[7],0.00111 µM
same,24 hr Dox Inducible IL2FLGluc 293FRT/TO: IL2/PD1,[7],3.6
same,Liver Microsome Stability (Multiple Species): Human - % Remaining after 30 min w/NADPH,[8],41.5%
same,EC50,[9],> 25 µM
same,EC50,[10],0.0135 µM
"CC(C)Oc1ccc(N2CCC[C@@H]2c2csc(NC(=O)c3cccn3Cc3ccncc3)n2)cc1 [Compound A5, (R)-N-(4-(1-(4-isopropoxyphenyl)pyrrolidin-2-yl)thiazol-2-yl)-1-(pyridin-4-ylmethyl)-1H-pyrrole-2-carboxamide]",Liver Microsome Stability (Multiple Species): Rat - % Remaining after 30 min w/NADPH,[1],26.5%
same,Liver Microsome Stability (Multiple Species): Mouse - % Remaining after 30 min w/NADPH,[2],13%
same,IC50,[3],0.087 µM
same,24 hr Dox Inducible TNFaFLGluc 293FRT/TO: TNF/PD1,[3],5.92
same,Liver Microsome Stability (Multiple Species): Monkey - % Remaining after 30 min w/NADPH,[4],4.26%
same,IC50,[5],0.0258 µM
same,IC50,[6],0.0147 µM
same,IC50,[7],0.0227 µM
same,24 hr Dox Inducible IL2FLGluc 293FRT/TO: IL2/PD1,[7],1.5
same,Liver Microsome Stability (Multiple Species): Human - % Remaining after 30 min w/NADPH,[8],10.4%
same,EC50,[9],> 25 µM
same,EC50,[10],0.448 µM
